Results published in patent US9149475B2, “Protein kinase C inhibitors and uses thereof” (Rigel Pharmaceuticals, Inc., priority 2009, dated 2015).

Test system: Human primary T cells
Assay: IL-2 ELISA, human primary T cell, anti-CD3+CD28+ (whole cell assay)
Type: cell-based
Conditions: Homo sapiens, T-cell, 24 h, human primary T cells stimulated with anti-CD3 + anti-CD28, 24 hours
Summary of the method: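 IL-2 secreted over 24 h at 37° C was quantified by ELISA after plate-bound αCD3 (1 μg/ml) and αCD28 (5 μg/ml) stimulation, or PMA (0.5 ng/ml) with ionomycin (0.1 μM) as counter-screen. Cells were IL-2-starved primary human T cells, expanded from volunteer PBMC and exposed to compound for 1 hr beforehand.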

Row | IC50 | Compound
1 | 0.5 to 1 µM | CC1(C)CC(Nc2nc(Nc3ccc(OC(C)(C)CCN4CCCC4)c(F)c3)ncc2F)CC(C)(C)N1 [III-46, 5-fluoro-N2-(3-fluoro-4-(2-methyl-4-(pyrrolidin-1-yl)butan-2-yloxy)phenyl)-N4-(2,2,6,6-tetramethylpiperidin-4-yl)pyrimidine-2,4-diamine]
2 | < 0.25 µM | CC(C)N1CCC(Oc2ccc(Nc3ncc(F)c(NC4CC(C)(C)NC(C)(C)C4)n3)cc2Cl)CC1 [III-98, N2-(3-chloro-4-(1-isopropylpiperidin-4-yloxy)phenyl)-5-fluoro-N4-(2,2,6,6-tetramethylpiperidin-4-yl)pyrimidine-2,4-diamine]
3 | < 0.25 µM | Cn1nnnc1-c1cc(Nc2ncc(F)c(NC3CC(C)(C)NC(C)(C)C3)n2)cc(C2CC2)c1 [III-147, N2-(3-cyclopropyl-5-(1-methyl-1H-tetrazol-5-yl)phenyl)-5-fluoro-N4-(2,2,6,6-tetramethylpiperidin-4-yl)pyrimidine-2,4-diamine]
4 | > 1 µM | CC(=O)N1CCC(Oc2ccc(Nc3ncc(F)c(NC4CC(C)(C)N(C)C(C)(C)C4)n3)cc2F)CC1 [III-12, 1-(4-(2-fluoro-4-(5-fluoro-4-(1,2,2,6,6-pentamethylpiperidin-4-ylamino)pyrimidin-2-ylamino)phenoxy)piperidin-1-yl)ethanone]
5 | > 1 µM | Cn1nnnc1-c1cc(Nc2ncc(F)c(NC3CC(C)(C)NC(C)(C)C3)n2)ccc1OC1COC1 [III-126, 5-fluoro-N2-(3-(1-methyl-1H-tetrazol-5-yl)-4-(oxetan-3-yloxy)phenyl)-N4-(2,2,6,6-tetramethylpiperidin-4-yl)pyrimidine-2,4-diamine]
6 | 0.5 to 1 µM | CC(=O)N1CCCC(Oc2ccc(Nc3ncc(F)c(NC4CC(C)(C)NC(C)(C)C4)n3)cc2OC(F)F)CC1 (centres unmarked) [III-42, 1-(4-(2-(difluoromethoxy)-4-(5-fluoro-4-(2,2,6,6-tetramethylpiperidin-4-ylamino)pyrimidin-2-ylamino)phenoxy)azepan-1-yl)ethanone]
7 | 0.5 to 1 µM | CN1C(C)(C)CC(Nc2nc(Nc3ccc(OC(C)(C)CCN4CCCC4)c(F)c3)ncc2F)CC1(C)C [III-47, 5-fluoro-N2-(3-fluoro-4-(2-methyl-4-(pyrrolidin-1-yl)butan-2-yloxy)phenyl)-N4-(1,2,2,6,6-pentamethylpiperidin-4-yl)pyrimidine-2,4-diamine]
8 | 0.25 to 0.5 µM | Cn1nnnc1-c1cc(Nc2ncc(F)c(NC3CC(C)(C)NC(C)(C)C3)n2)cc(F)c1F [III-136, N2-(3,4-difluoro-5-(1-methyl-1H-tetrazol-5-yl)phenyl)-5-fluoro-N4-(2,2,6,6-tetramethylpiperidin-4-yl)pyrimidine-2,4-diamine]
9 | > 1 µM | CCNC(=O)N1CCC(Oc2ccc(Nc3ncc(F)c(NC4CC(C)(C)NC(C)(C)C4)n3)cc2F)CC1 [III-17, N-ethyl-4-(2-fluoro-4-(5-fluoro-4-(2,2,6,6-tetramethylpiperidin-4-ylamino)pyrimidin-2-ylamino)phenoxy)piperidine-1-carboxamide]
10 | > 1 µM | CC1(C)CC(Nc2nc(Nc3ccc(OC4CCN(CC(N)=O)CC4)c(F)c3)ncc2F)CC(C)(C)N1 [III-34, 2-(4-(2-Fluoro-4-(5-fluoro-4-(2,2,6,6-tetramethylpiperidin-4-ylamino)pyrimidin-2-ylamino)phenoxy)piperidin-1-yl)acetamide]
11 | > 1 µM | CCNC(=O)N1CCC(Oc2ccc(Nc3ncc(F)c(NC4CC(C)(C)N(C)C(C)(C)C4)n3)cc2F)CC1 [III-16, N-ethyl-4-(2-fluoro-4-(5-fluoro-4-(1,2,2,6,6-pentamethylpiperidin-4-ylamino)pyrimidin-2-ylamino)phenoxy)piperidine-1-carboxamide]
12 | < 0.25 µM | [2H]C([2H])([2H])N1C(C)(C)CC(Nc2nc(Nc3ccc(OC4CCN(C(C)C)CC4)c(Cl)c3)ncc2F)CC1(C)C [III-111, N2-(3-(chloro)-4-(1-isopropylpiperidin-4-yloxy)phenyl)-5-fluoro-N4-(1-trideuteromethyl-2,2,6,6-tetramethylpiperidin-4-yl)pyrimidine-2,4-diamine]
13 | > 1 µM | CCNC(=O)N1CCC(Oc2ccc(Nc3ncc(F)c(NC4CC(C)(C)NC(C)(C)C4)n3)cc2OC(F)F)CC1 [III-86, 4-(2-(difluoromethoxy)-4-(5-fluoro-4-(2,2,6,6-tetramethylpiperidin-4-ylamino)pyrimidin-2-ylamino)phenoxy)-N-ethylpiperidine-1-carboxamide]

The remaining lines, values behind:

Row | Compound | IC50
14 | CC(C)Oc1ncc(Nc2ncc(F)c(NC3CC(C)(C)NC(C)(C)C3)n2)cc1-c1nnnn1C [Compound I-127, 5-fluoro-N2-(6-isopropoxy-5-(1-methyl-1H-tetrazol-5-yl)pyridin-3-yl)-N4-(2,2,6,6-tetramethylpiperidin-4-yl)pyrimidine-2,4-diamine] | 0.25 to 0.5 µM
15 | CC1(C)CC(Nc2nc(Nc3ccc(OCCN4CCNC4=O)c(OC(F)F)c3)ncc2F)CC(C)(C)N1 [Compound I-50, 1-(2-(4-(4-(2,2,6,6-tetramethylpiperidin-4-ylamino)-5-fluoropyrimidin-2-ylamino)-2-(difluoromethoxy)phenoxy)ethyl)imidazolidin-2-one] | > 1 µM
16 | CC(C)Oc1ncc(Nc2ncc(C#N)c(NC3CC(C)(C)N(C)C(C)(C)C3)n2)cc1-c1nnnn1C1CC1 [Compound I-139, 2-(5-(1-cyclopropyl-1H-tetrazol-5-yl)-6-isopropoxypyridin-3-ylamino)-4-(1,2,2,6,6-pentamethylpiperidin-4-ylamino)pyrimidine-5-carbonitrile] | < 0.25 µM
17 | CC(C)N1CCC(Oc2ccc(Nc3ncc(F)c(NC4CC(C)(C)NC(C)(C)C4)n3)cc2OC(F)F)CC1 [Compound I-104, N2-(4-(1-isopropylpiperidin-4-yloxy)-3-(difluoromethoxy)phenyl)-5-fluoro-N4-(2,2,6,6-tetramethylpiperidin-4-yl)pyrimidine-2,4-diamine] | < 0.25 µM
18 | CC1(C)CC(Nc2nc(Nc3ccc4c(c3)OCC(CN3CCOCC3)O4)ncc2F)CC(C)(C)N1 (centres unmarked) [II-8, 5-fluoro-N2-(2,3-dihydro-2-(morpholinomethyl)benzo[b][1,4]dioxin-6-yl)-N4-(2,2,6,6-tetramethylpiperidin-4-yl)pyrimidine-2,4-diamine] | > 1 µM
19 | CC1(C)CC(Nc2nc(Nc3ccc(OCCN4CCCC4=O)c(OC(F)F)c3)ncc2F)CC(C)(C)N1 [Compound I-30, 1-(2-(4-(4-(2,2,6,6-tetramethylpiperidin-4-ylamino)-5-fluoropyrimidin-2-ylamino)-2-(difluoromethoxy)phenoxy)ethyl)pyrrolidin-2-one] | 0.5 to 1 µM
20 | CC(C)Oc1ncc(Nc2ncc(C#N)c(NC3CC(C)(C)N(C)C(C)(C)C3)n2)cc1-c1nnnn1C(C)C [Compound I-135, 2-(6-isopropoxy-5-(1-isopropyl-1H-tetrazol-5-yl)pyridin-3-ylamino)-4-(1,2,2,6,6-pentamethylpiperidin-4-ylamino)pyrimidine-5-carbonitrile] | 0.5 to 1 µM
21 | CN1C(C)(C)CC(Nc2nc(Nc3cccc(-n4ccc(C(F)(F)F)n4)c3)ncc2F)CC1(C)C [Compound I-2, 5-fluoro-N2-(3-(3-(trifluoromethyl)-1H-pyrazol-1-yl)phenyl)-N4-(1,2,2,6,6-pentamethylpiperidin-4-yl)pyrimidine-2,4-diamine] | > 1 µM
22 | CN1C(C)(C)CC(Nc2nc(Nc3ccc(Oc4cccnc4)c(OC(F)F)c3)ncc2F)CC1(C)C [Compound I-44, N2-(3-(difluoromethoxy)-4-(pyridin-3-yloxy)phenyl)-5-fluoro-N4-(1,2,2,6,6-pentamethylpiperidin-4-yl)pyrimidine-2,4-diamine] | 0.25 to 0.5 µM
23 | CCOc1ccc(Nc2ncc(F)c(NC3CC(C)(C)N(C)C(C)(C)C3)n2)cc1OC(F)F [Compound I-109, N2-(3-(difluoromethoxy)-4-ethoxyphenyl)-5-fluoro-N4-(1,2,2,6,6-pentamethylpiperidin-4-yl)pyrimidine-2,4-diamine] | < 0.25 µM
24 | CC1(C)CC(Nc2nc(Nc3ccc4c(c3)OCC(C(=O)N3CCOCC3)O4)ncc2F)CC(C)(C)N1 (centres unmarked) [II-4, (6-(4-(2,2,6,6-tetramethylpiperidin-4-ylamino)-5-fluoropyrimidin-2-ylamino)-2,3-dihydrobenzo[b][1,4]dioxin-2-yl)(morpholino)methanone] | > 1 µM
25 | CC1(C)CC(Nc2nc(Nc3ccc(OCCCN4CCOCC4)c(OC(F)F)c3)ncc2F)CC(C)(C)N1CC(F)(F)F [Compound I-66, N2-(4-(3-morpholinopropoxy)-3-(difluoromethoxy)phenyl)-5-fluoro-N4-(1-(2,2,2-trifluoroethyl)-2,2,6,6-tetramethylpiperidin-4-yl)pyrimidine-2,4-diamine] | > 1 µM
26 | CN1C(C)(C)CC(Nc2nc(Nc3cc(OCCn4cncn4)cc(C(F)(F)F)c3)ncc2F)CC1(C)C [Compound I-29, N2-(3-(2-(1H-1,2,4-triazol-1-yl)ethoxy)-5-(trifluoromethyl)phenyl)-5-fluoro-N4-(1,2,2,6,6-pentamethylpiperidin-4-yl)pyrimidine-2,4-diamine] | 0.5 to 1 µM

Same assay, conditions: human primary T cells stimulated with anti-CD3 + anti-CD28, 24 hours

Row | IC50 | Compound
27 | > 1 µM | N2-(3,5-Dimethoxyphenyl)-5-fluoro-N4-(1-N-oxide-2,2,6,6-pentamethylpiperidin-4-yl)-2,4-pyrimidinediamine [Compound I-111]
28 | > 1 µM | CC1(C)CC(Nc2nc(Nc3ccc4c(c3)OCCO4)ncc2F)CC(C)(C)N1 [II-10, N2-(3,4-Ethylenedioxy)phenyl-5-fluoro-N4-(2,2,6,6-tetramethylpiperidin-4-yl)-2,4-pyrimidinediamine]
29 | < 0.25 µM | CC1(C)CC(Nc2nc(Nc3cccc(-n4nnnc4SCC(F)(F)F)c3)ncc2C#N)CC(C)(C)N1 [Compound I-79, 5-cyano-N4-(2,2,6,6-tetramethylpiperidin-4-yl)-N2-{3-[5-(2,2,2-trifluoroethyl)thio]-1H-tetrazol-1-yl}phenyl-2,4-pyrimidinediamine]
